Some test systems named below: SK-MEL-5 melanoma; SW-620 colon; SF-295 CNS; SNB-75 CNS; A498 renal; RPMI-8226 leukemia; OVCAR-5 ovarian; SR leukemia; K-562 leukemia; RXF 393 renal.
Holding throughout (experiment): NCI-60 cell line screen, 48 h

“And” between values parts separate entries of the source, which are not always exact repeats. Equal values may be shown once.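 Five compound concentrations were applied to cells in 96-well plates for 48 hours; endpoints were derived by simple linear interpolation of the resulting dose-response curve. At the GI50, growth is halved. TGI: total growth inhibition.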 Where only a bound is given, the exact number is not on record here.

In the case of `CO[C@@H]1CC[C@]2(C)OC[C@H](C)[C@@H]3C[C@@H](C)[C@@H](OC(C)=O)[C@@H]4[C@H]3[C@@H]2O[C@H]4C[C@@]1(C)O`, the GI50 in the assay on SK-MEL-5 melanoma, in the assay on SW-620 colon, in the assay on SF-295 CNS, in the assay with SNB-75 CNS, in the assay with A498 renal and with RPMI-8226 leukemia was greater than 100 µM in each case. The GI50 in the assay on OVCAR-5 ovarian, with SR leukemia, with K-562 leukemia and with RXF 393 renal was greater than 100 µM each time. In addition, the TGI in the assay with SK-MEL-5 melanoma, in the assay with SW-620 colon, in the assay on SF-295 CNS, with SNB-75 CNS, in the assay on A498 renal and in the assay on RPMI-8226 leukemia was greater than 100 µM each time. The TGI with OVCAR-5 ovarian, in the assay on SR leukemia, with K-562 leukemia and in the assay with RXF 393 renal was greater than 100 µM in each case.

For `Cc1cccc(NC2=C(Cl)C(=O)c3nc(C)ccc3C2=O)c1`, the GI50 is 1.66 µM with SK-MEL-5 melanoma; 1.64 µM with SW-620 colon; 1.49 µM with SF-295 CNS; 2.73 µM in the assay with SNB-75 CNS; 0.235 µM with A498 renal; 1.48 µM in the assay with RPMI-8226 leukemia. The GI50 is 1.82 µM with OVCAR-5 ovarian, 1.22 µM with SR leukemia, 0.45 µM with K-562 leukemia and 1.46 µM in the assay with RXF 393 renal. In addition, the TGI in the assay on SK-MEL-5 melanoma came to 3.03 µM; with SW-620 colon, 4.27 µM; with SF-295 CNS it was 2.96 µM; in the assay on SNB-75 CNS, 7.33 µM; in the assay on A498 renal it was 2.43 µM; with RPMI-8226 leukemia, 5.17 µM. The TGI in the assay on OVCAR-5 ovarian was 3.61 µM; in the assay with SR leukemia it was greater than 100 µM; in the assay with K-562 leukemia, greater than 100 µM; in the assay on RXF 393 renal, 2.84 µM.

On to `CCN(CCNS(C)(=O)=O)c1ccc(N)c(C)c1`, for which the GI50 in the assay with SK-MEL-5 melanoma is 11.9 µM; in the assay on SW-620 colon, 2.25 µM; in the assay with SF-295 CNS it was 16.7 µM; in the assay with SNB-75 CNS, 18.8 µM; with A498 renal, 12.6 µM; in the assay with RPMI-8226 leukemia, 3.16 µM. Moreover, the GI50 is 13.6 µM with OVCAR-5 ovarian, 5.14 µM in the assay with SR leukemia, 3.39 µM in the assay on K-562 leukemia and 2.71 µM with RXF 393 renal. The TGI in the assay on SK-MEL-5 melanoma was 24.6 µM; in the assay on SW-620 colon, 5.31 µM; in the assay with SF-295 CNS it was 34.3 µM; in the assay on SNB-75 CNS, 37.8 µM; in the assay on A498 renal it was 55.2 µM; in the assay on RPMI-8226 leukemia, 8.32 µM. Also, the TGI with OVCAR-5 ovarian turned out to be 28.2 µM; with SR leukemia, 23.8 µM; in the assay with K-562 leukemia, 18.4 µM; in the assay on RXF 393 renal, 8.85 µM.

Regarding `CCn1cc(-c2ccnc3[nH]c(-c4cccc(CN(C)C)c4)cc23)c(-c2ccc(NC(=O)N(C)C)cc2)n1`, the GI50 was 6.55 µM in the assay on SK-MEL-5 melanoma; 0.566 µM and 0.533 µM in the assay with SW-620 colon; 0.484 µM and 0.408 µM with SF-295 CNS; 0.217 µM and 0.461 µM with SNB-75 CNS; 0.0673 µM and 0.519 µM in the assay on A498 renal; 1.69 µM and 1.32 µM in the assay with RPMI-8226 leukemia. Besides, the GI50 with OVCAR-5 ovarian is 1.56 µM and 4.74 µM; in the assay with SR leukemia it was 0.122 µM and 0.031 µM; in the assay on RXF 393 renal it was 0.356 µM and 1.18 µM. Further, the TGI in the assay on SK-MEL-5 melanoma was 23.6 µM; in the assay with SW-620 colon it was 13.7 µM and > 10 µM; in the assay with SF-295 CNS, 11.7 µM and > 10 µM; in the assay on SNB-75 CNS, 2.38 µM and 3.42 µM; with A498 renal it was 0.749 µM and 3.28 µM; with RPMI-8226 leukemia, 15.6 µM and > 10 µM. Further, the TGI was 14.6 µM and > 10 µM with OVCAR-5 ovarian; 6.58 µM and 3.28 µM with SR leukemia; 17.2 µM and 2.96 µM with K-562 leukemia; 5.54 µM and > 10 µM in the assay with RXF 393 renal.

Regarding `COCOCCC#CCO`, the TGI with SK-MEL-5 melanoma, with SW-620 colon, in the assay with SF-295 CNS, with SNB-75 CNS, in the assay with A498 renal and in the assay with RPMI-8226 leukemia was greater than 100 µM throughout. The TGI in the assay on OVCAR-5 ovarian, in the assay with SR leukemia, with K-562 leukemia and in the assay on RXF 393 renal was greater than 100 µM each time.

On to `NCCCn1c2c(c3ccc([N+](=O)[O-])cc3c1=O)C(=O)c1cc(I)ccc1-2`, for which the GI50 is 0.172 µM in the assay on SK-MEL-5 melanoma; less than 0.01 µM in the assay with SW-620 colon; less than 0.0218 µM in the assay with SF-295 CNS; 0.95 µM with SNB-75 CNS; 3.02 µM in the assay on A498 renal; 0.0218 µM with RPMI-8226 leukemia. The GI50 is 0.556 µM in the assay on OVCAR-5 ovarian, less than 0.01 µM in the assay with SR leukemia, less than 0.0147 µM in the assay on K-562 leukemia and 0.503 µM in the assay on RXF 393 renal. The TGI in the assay with SK-MEL-5 melanoma is 1.45 µM; with SW-620 colon, 1.76 µM; with SF-295 CNS, 1.53 µM; in the assay on SNB-75 CNS, 3.9 µM; with A498 renal, 7.72 µM; with RPMI-8226 leukemia it was 0.265 µM. Besides, the TGI with OVCAR-5 ovarian is 1.95 µM; in the assay on SR leukemia, 0.929 µM; with K-562 leukemia it was 0.196 µM; in the assay with RXF 393 renal, 2.28 µM.

With `Cc1cc(C(=O)CSC(=S)SC(C)(C)C)ccc1Cl`, the TGI in the assay on SK-MEL-5 melanoma is 31.7 µM; in the assay on SW-620 colon, 68.3 µM; with SF-295 CNS it was 37.1 µM; in the assay with SNB-75 CNS it was 54.3 µM; in the assay with A498 renal, 29.8 µM; with RPMI-8226 leukemia, 52.1 µM. In addition, the TGI with OVCAR-5 ovarian was 43.9 µM; in the assay on SR leukemia it was 46.9 µM; in the assay with K-562 leukemia, greater than 100 µM; in the assay on RXF 393 renal, 29 µM.

Turning to `CCOC(=O)Cc1csc(Nc2ccccc2[N+](=O)[O-])n1`, the TGI was greater than 100 µM in the assay with SK-MEL-5 melanoma; greater than 93.1 µM with SW-620 colon; greater than 100 µM in the assay with SF-295 CNS; greater than 100 µM in the assay on SNB-75 CNS; greater than 100 µM in the assay on A498 renal; greater than 100 µM with RPMI-8226 leukemia. In addition, the TGI in the assay on OVCAR-5 ovarian was greater than 100 µM; in the assay on SR leukemia, 61.3 µM; in the assay on K-562 leukemia, greater than 100 µM; with RXF 393 renal, greater than 100 µM.

Turning to `CC12c3ccccc3C(OC=O)(c3ccccc31)C1(C)c3ccccc3C2(OC=O)c2ccccc21`, the TGI with SK-MEL-5 melanoma, with SW-620 colon, with SF-295 CNS, with SNB-75 CNS, in the assay with A498 renal and in the assay with RPMI-8226 leukemia was greater than 100 µM in each case. Further, the TGI was greater than 100 µM in the assay with OVCAR-5 ovarian, 48.6 µM in the assay on SR leukemia, greater than 100 µM in the assay on K-562 leukemia and greater than 100 µM with RXF 393 renal.

With `COc1c2occc2c(N)c2ccc(=O)oc12`, the TGI with SK-MEL-5 melanoma was greater than 100 µM; in the assay on SW-620 colon, greater than 100 µM; in the assay with SF-295 CNS, greater than 100 µM; with SNB-75 CNS it was 69.1 µM; with A498 renal, greater than 100 µM; with RPMI-8226 leukemia, greater than 100 µM. Besides, the TGI with OVCAR-5 ovarian, in the assay on SR leukemia, in the assay with K-562 leukemia and with RXF 393 renal was greater than 100 µM throughout.

`Nc1nc(Cl)nc2c1ncn2C1CC(O)C(CO)O1` (stereo not given): the TGI with SK-MEL-5 melanoma is greater than 91.4 µM; in the assay on SW-620 colon, greater than 100 µM; in the assay on SF-295 CNS it was 99.9 µM; in the assay on SNB-75 CNS, greater than 91.9 µM; with A498 renal, 48.2 µM; in the assay with RPMI-8226 leukemia, greater than 100 µM. In addition, the TGI in the assay with OVCAR-5 ovarian, in the assay with SR leukemia, with K-562 leukemia and with RXF 393 renal was greater than 100 µM in each case. In addition, in the assay on SR leukemia, the GI50 is 5.66 µM.

As to `COc1cc2c3c(n(C)c(=O)c2cc1OC)-c1cc2c(cc1C3=O)OCO2`, the TGI is greater than 44.8 µM in the assay on SK-MEL-5 melanoma; greater than 100 µM in the assay with SW-620 colon; greater than 61.3 µM in the assay with SF-295 CNS; 22.6 µM in the assay on SNB-75 CNS; greater than 97 µM in the assay with A498 renal; greater than 100 µM in the assay on RPMI-8226 leukemia. The TGI in the assay on OVCAR-5 ovarian was greater than 100 µM; in the assay on SR leukemia, 11.8 µM; in the assay on K-562 leukemia it was greater than 92.2 µM; with RXF 393 renal, greater than 62.4 µM.

(Values after PubChem BioAssay (NCI).)
